For 22 compounds, IC50 results are on record in patent US9073926B2, “Heterocyclic compounds containing a pyrrolopyridine or benzimidazole core” (Boehringer Ingelheim International GmbH, priority 2009, dated 2015).

The target of this assay is Human RSK2 (Homo sapiens (Human), UniProt P51812). The assay is described as follows: Human RSK2 Assay (Kinase Glo Plus, residual ATP). The class given is biochemical. The note with it: 0.75 nM His-RSK2, 0.75 μM ATP, 1.0 μM S6 Kinase/RSK Substrate Peptide 1. The method, then: Experimental Method A: Human RSK2 Assay
Human RSK2, sequence (P51812 whole entry): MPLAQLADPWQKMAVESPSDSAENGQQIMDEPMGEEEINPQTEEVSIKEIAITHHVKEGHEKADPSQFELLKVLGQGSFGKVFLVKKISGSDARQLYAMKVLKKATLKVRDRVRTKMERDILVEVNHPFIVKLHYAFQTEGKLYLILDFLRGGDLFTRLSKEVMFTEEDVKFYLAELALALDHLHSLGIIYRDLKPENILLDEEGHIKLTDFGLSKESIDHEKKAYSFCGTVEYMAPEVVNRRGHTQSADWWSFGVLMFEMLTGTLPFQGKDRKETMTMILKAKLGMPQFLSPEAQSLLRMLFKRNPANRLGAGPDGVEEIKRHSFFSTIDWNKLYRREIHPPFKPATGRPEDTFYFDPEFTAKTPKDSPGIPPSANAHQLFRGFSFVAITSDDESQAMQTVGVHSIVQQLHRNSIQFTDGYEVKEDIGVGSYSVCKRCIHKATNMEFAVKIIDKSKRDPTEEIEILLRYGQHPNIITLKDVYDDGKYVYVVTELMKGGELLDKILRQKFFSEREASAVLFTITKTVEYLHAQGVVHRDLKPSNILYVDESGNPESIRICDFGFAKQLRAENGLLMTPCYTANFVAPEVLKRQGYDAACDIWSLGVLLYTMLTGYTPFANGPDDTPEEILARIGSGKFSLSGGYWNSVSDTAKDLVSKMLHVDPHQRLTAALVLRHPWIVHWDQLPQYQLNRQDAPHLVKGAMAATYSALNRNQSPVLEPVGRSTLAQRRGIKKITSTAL
Compounds are assessed for their ability to inhibit the phosphorylation of a substrate peptide by RSK2.
Human RSK2 protein, purchased from Invitrogen, is used to measure kinase activity utilizing Kinase Glo Plus (Promega) a homogeneous assay technology, which uses a luciferin-luciferase based ATP detection reagent to quantify residual ATP. The assay is performed using 0.75 nM His-RSK2, 0.75 μM ATP and 1.0 μM S6 Kinase/RSK Substrate Peptide 1 (Upstate, catalog #12-124), in assay buffer consisting of 25 mM HEPES, pH 7.5, 10 mM MgCl2, 5 mM MnCl2, 50 mM KCl, 0.2% BSA, 0.01% CHAPS, 100 μM Na3VO4, 0.5 mM DTT, and 1% DMSO. Solutions of test compounds at various concentrations are prepared by 1:3 fold serial dilution of a 1 mM solution of compound in DMSO. The DMSO solutions are further diluted with assay buffer to a final concentration of DMSO of 5%.
The assay is performed in a 384 well, white, non-binding plate (Corning, catalogue #3574). Solutions of test compounds (10 μL) are transferred to a dry assay plate, followed by addition of 20 μL kinase and 20 μL ATP+Substrate Peptide 1 described above. The kinase reaction mixture is incubated for 90 minutes at 28° C. followed by addition of 30 μL of ATP detection reagent for 15 minutes at room temperature. The relative light unit (RLU) signal is measured on a LJL Analyst (Molecular Devices) in luminescence mode using 384 aperture. The RLU signals were converted to percent of control (POC) values using the formula: POC=100*(BCTRL−Signal)/(BCTRL−PCTRL), where Signal is the test well RLU signal, BCTRL is the average of background (negative control), which consists of ATP+peptide and compound buffer, well signals on the plate, and PCTRL is the average of positive control, which consists of kinase, ATP+peptide, and compound buffer, well signals on the plate. For concentration-responsive compounds, POC as a function of test compound concentration are fitted to a 4-parameter logistic equation of the form: Y=A+(B−A)/[1+(x/C)^D], where A, B, C, and D are fitted parameters (parameter B is fixed at zero POC), and x and y are the independent and dependent variables, respectively. The IC50 (50% inhibitory concentration) is determined as the inflection point parameter, C. Experimental Method B: Human RSK2 Trans-Reporter Assay
(In general: Kinase-Glo reads ATP consumption through a luciferase reaction.)
A word on the IC50: it is the concentration at which inhibition is half-maximal. `CC(C)(C)n1cc(NC(=O)c2ccc3cc4n(c3n2)CCCNC4=O)cn1` [Example 44, N-(1-tert-butyl-1H-pyrazol-4-yl)-6-oxo-7,8,9,10-tetrahydro-6H-pyrido[3′,2′:4,5]pyrrolo[1,2-a][1,4]diazepine-2-carboxamide]: the IC50 stood at 9.7 nM.

Take `CCn1c(NC(=O)c2ccc3cc4n(c3n2)[C@H](C)CNC4=O)nc2ccccc21` [Example 72, (9R)-N-(1-ethyl-1H-benzimidazol-2-yl)-9-methyl-6-oxo-6,7,8,9-tetrahydropyrido[3′,2′:4,5]pyrrolo[1,2-a]pyrazine-2-carboxamide]: the IC50 is 26.5 nM.

`CC(C)n1ncc2cc(NC(=O)c3ccc4cc5n(c4n3)CC(C)(C)CNC5=O)cnc21` [Example 31, 9,9-dimethyl-6-oxo-N-[1-(propan-2-yl)-1H-pyrazolo[3,4-b]pyridin-5-yl]-7,8,9,10-tetrahydro-6H-pyrido[3′,2′:4,5]pyrrolo[1,2-a][1,4]diazepine-2-carboxamide]: the IC50 was determined as 105 nM.

On to `CC(C)c1cc(NC(=O)c2ccc3cc4n(c3n2)CC(C)(C)CNC4=O)no1` [Example 89, 9,9-dimethyl-6-oxo-N-[5-(propan-2-yl)-1,2-oxazol-3-yl]-7,8,9,10-tetrahydro-6H-pyrido[3′,2′:4,5]pyrrolo[1,2-a][1,4]diazepine-2-carboxamide], for which the concentration for half-maximal inhibition (IC50) was determined as 125 nM.

Regarding `CC1(C)CNC(=O)c2cc3ccc(C(=O)Nc4cc(Cc5ccccc5)on4)nc3n2C1` [Example 93, N-(5-benzyl-1,2-oxazol-3-yl)-9,9-dimethyl-6-oxo-7,8,9,10-tetrahydro-6H-pyrido[3′,2′:4,5]pyrrolo[1,2-a][1,4]diazepine-2-carboxamide], the IC50 amounted to 360 nM.

For the compound `Cn1cc(NC(=O)c2ccc3nc4n(c3c2)CCCNC4=O)nc1C(=O)NC1CCCC1` [Example 10, N-[2-(cyclopentylcarbamoyl)-1-methyl-1H-imidazol-4-yl]-1-oxo-2,3,4,5-tetrahydro-1H-[1,4]diazepino[1,2-a]benzimidazole-8-carboxamide], the IC50 came to 69 nM.

With `O=C(Nc1cccc(F)c1)c1ccc2nc3n(c2c1)CCCNC3=O` [Example 8, N-(3-fluorophenyl)-1-oxo-2,3,4,5-tetrahydro-1H-[1,4]diazepino[1,2-a]benzimidazole-8-carboxamide], the IC50 turned out to be 960 nM.

With `C[C@@H]1CNC(=O)c2cc3ccc(C(=O)Nc4nc5ccccc5n4CCCN(C)C)nc3n21` [Example 76, (9R)-N-{1-[3-(dimethylamino)propyl]-1H-benzimidazol-2-yl}-9-methyl-6-oxo-6,7,8,9-tetrahydropyrido[3′,2′:4,5]pyrrolo[1,2-a]pyrazine-2-carboxamide], the IC50 was determined as 54 nM.

On to `C[C@H]1NC(=O)c2cc3ccc(C(=O)Nc4nc5ccccc5n4CCCN(C)C)nc3n2[C@H]1C` (relative stereo) [Example 77, N-{1-[3-(dimethylamino)propyl]-1H-benzimidazol-2-yl}-cis-8,9-dimethyl-6-oxo-6,7,8,9-tetrahydropyrido[3′,2′:4,5]pyrrolo[1,2-a]pyrazine-2-carboxamide], for which the IC50 is 29 nM.

In the case of `O=C(Nc1cc(Cc2ccccc2)no1)c1ccc2cc3n(c2n1)CCCNC3=O` [Example 95, N-(3-benzyl-1,2-oxazol-5-yl)-6-oxo-7,8,9,10-tetrahydro-6H-pyrido[3′,2′:4,5]pyrrolo[1,2-a][1,4]diazepine-2-carboxamide], the IC50 was found to be 3.6 nM.

As for `CC1CCNC(=O)c2cc3ccc(C(=O)Nc4cnn(Cc5ccccc5)c4)nc3n21` (stereo not shown) [Example 46, N-(1-benzyl-1H-pyrazol-4-yl)-10-methyl-6-oxo-7,8,9,10-tetrahydro-6H-pyrido[3′,2′:4,5]pyrrolo[1,2-a][1,4]diazepine-2-carboxamide], the IC50 is 0.39 nM.

With `Cc1nc(-c2cccc(NC(=O)c3ccc4cc5n(c4n3)CCCNC5=O)c2)cs1` [Example 24, N-[3-(2-methyl-1,3-triazol-4-yl)phenyl]-6-oxo-7,8,9,10-tetrahydro-6H-pyrido[3′,2′:4,5]pyrrolo[1,2-a][1,4]diazepine-2-carboxamide], the IC50 was 56 nM.

Consider `C[C@H]1CNC(=O)c2cc3ccc(C(=O)Nc4cnc5ccccc5c4)nc3n21` [Example 65, (9S)-9-methyl-6-oxo-N-(quinolin-3-yl)-6,7,8,9-tetrahydropyrido[3′,2′:4,5]pyrrolo[1,2-a]pyrazine-2-carboxamide], for which the IC50 was 34 nM.

For `CC1CCNC(=O)c2cc3ccc(C(=O)Nc4cnc5c(cnn5CC5CCOC5)c4)nc3n21` (stereo not shown) [Example 35, 10-methyl-6-oxo-N-[1-(tetrahydrofuran-3-ylmethyl)-1H-pyrazolo[3,4-b]pyridin-5-yl]-7,8,9,10-tetrahydro-6H-pyrido[3′,2′:4,5]pyrrolo[1,2-a][1,4]diazepine-2-carboxamide], the IC50 came to 1.6 nM.

Regarding `CC1(C)CNC(=O)c2cc3ccc(C(=O)Nc4cnn(Cc5ccccc5)c4)nc3n2C1` [Example 48, N-(1-benzyl-1H-pyrazol-4-yl)-9,9-dimethyl-6-oxo-7,8,9,10-tetrahydro-6H-pyrido[3′,2′:4,5]pyrrolo[1,2-a][1,4]diazepine-2-carboxamide], the IC50 stood at 12 nM.

`CC1(C)CNC(=O)c2cc3ccc(C(=O)Nc4cnn(C(C)(C)C)c4)nc3n2C1` [Example 45, N-(1-tert-butyl-1H-pyrazol-4-yl)-9,9-dimethyl-6-oxo-7,8,9,10-tetrahydro-6H-pyrido[3′,2′:4,5]pyrrolo[1,2-a][1,4]diazepine-2-carboxamide]: the IC50 is 50 nM.

On to `Cc1ccnc(NC(=O)c2ccc3cc4n(c3n2)CCCNC4=O)c1` [Example 38, N-(4-methylpyridin-2-yl)-6-oxo-7,8,9,10-tetrahydro-6H-pyrido[3′,2′:4,5]pyrrolo[1,2-a][1,4]diazepine-2-carboxamide], for which the 50% inhibitory concentration (IC50) was 3.8 nM.

For the compound `CC1CNC(=O)c2cc3ccc(C(=O)Nc4nccs4)nc3n21` (stereo not shown) [Example 103, 9-methyl-6-oxo-N-(1,3-thiazol-2-yl)-6,7,8,9-tetrahydropyrido[3′,2′:4,5]pyrrolo[1,2-a]pyrazine-2-carboxamide], the IC50 came to 330 nM.

With `CC1(C)CNC(=O)c2cc3ccc(C(=O)Nc4cnc5ccccc5c4)nc3n2C1` [Example 39, 9,9-dimethyl-6-oxo-N-(quinolin-3-yl)-7,8,9,10-tetrahydro-6H-pyrido[3′,2′:4,5]pyrrolo[1,2-a][1,4]diazepine-2-carboxamide], the IC50 came to 91 nM.

As for `CCn1c(NC(=O)c2ccc3nc4n(c3c2)CCCNC4=O)nc2cccnc21` [Example 17, N-(3-ethyl-3H-imidazol[4,5-b]pyridin-2-yl)-1-oxo-2,3,4,5-tetrahydro-1H-[1,4]diazepino[1,2-a]benzimidazole-8-carboxamide], the IC50 was 23 nM.

In the case of `CCn1c(NC(=O)c2ccc3cc4n(c3n2)[C@@H](C)[C@@H](C)NC4=O)nc2ccccc21` (relative stereo) [Example 73, N-(1-ethyl-1H-benzimidazol-2-yl)- cis-8,9-dimethyl-6-oxo-6,7,8,9-tetrahydropyrido[3′,2′:4,5]pyrrolo[1,2-a]pyrazine-2-carboxamide], the IC50 came out at 11.6 nM.

Consider `C[C@H]1NC(=O)c2cc3ccc(C(=O)Nc4cnn(Cc5ccccc5)c4)nc3n2[C@H]1C` (relative stereo) [Example 61, N-(1-benzyl-1H-pyrazol-4-yl)-cis-8,9-dimethyl-6-oxo-6,7,8,9-tetrahydropyrido[3′,2′:4,5]pyrrolo[1,2-a]pyrazine-2-carboxamide], for which the 50% inhibitory concentration (IC50) was found to be 0.34 nM.
